Experiments:
Format in all cases: cell-based, mouse
osteocalcin mRNA = experiment: Northern blotting for osteocalcin mRNA in M2-10B4 cells; details: for levels of osteocalcin mRNA relative to the control: 5 μM, eight days, M2-10B4
Experimental: RNA isolation and Northern blot analysis—Following treatment of cells under appropriate experimental conditions, total RNA was isolated using the RNA isolation kit from Stratagene (La Jolla, Calif., U.S.A.). Total RNA ([…]) was run on a 1% agarose/formaldehyde gel and transferred to Duralon-UV membranes (Strategene, CA, U.S.A.) and cross-linked with UV light. The membranes were hybridized overnight at 60 degree C. with ^32P-labeled mouse osteocalcin cDNA probe, mouse lipoprotein lipase (LPL), mouse adipocyte protein 2 (aP^2) PCR-generated probes, human 28S or 18S rRNA probes obtained from Geneka Biotechnology (Montreal, Quebec, Canada) and Maxim Biotech (San Francisco, Calif., U.S.A.), respectively. The PCR products were generated using primer sets synthesized by Invitrogen (Carlsbad, Calif., U.S.A.) with the following specifications: mouse aP2 gene (accession no. M13261); sense (75-95) 5′-[…]-3′, antisense (362-383) 5′-[…]-3′, generating a PCR product of 309 base pairs. Mouse LPL (accession no. XM—134193); sense (1038-1058) 5′-[…]-3′, antisense (1816-1836) 5′-[…]-3′, generating a PCR product of 799 base pairs. The PCR products were gel-purified and sequenced by the UCLA sequencing core, showing the highest similarity to their respective GenBank entries. Following hybridization, the blots were washed twice at room temperature with 2×SSC+0.1% SDS, and then twice at 60 degree C. with 0.5×SSC+0.1% SDS, and exposed to X-ray film. The extent of gene induction was determined by densitometry.
After 4 and 8 days, total RNA from duplicate samples was isolated and analyzed for osteocalcin (Osc) and 28S rRNA expression by Northern blotting as described. FIG. 3E is a radiogram of Northern blotting for osteocalcin mRNA in M2 cells exposed to a control or combination of oxysterols for 4 or 8 days. FIG. 3F is a bar graph depicting the relative demsometric units of osteocalcin mRNA in M2 cells exposed to a control or combination of oxysterols for 4 -or 8 days. Data from densitometric analysis of the Northern blot is shown in (F) as the average of duplicate samples, normalized to 28S rRNA.
(§1) Next, a combination of 22R and 20S oxysterols (RS, 2.5 μM each) were added in the presence or absence of SC as indicated. After 3 days, ALP activity was measured as described earlier. […] (B) M2 cells were treated as described in (A) and after 10 days matrix mineralization in cultures was quantified by a ^45Ca incorporation assay as described earlier. […] (C) M2 cells were pretreated with 20 μM SC for 4 hours, followed by the addition of RS in the presence or absence of SC as described above. After 8 days, total RNA was isolated and analyzed for osteocalcin (Osc) and […] expression by Northern blotting as previously described. Data from densitometric analysis of the Northern blot is shown in (D) as the average of duplicate samples, normalized to 18S rRNA. (E) M2 cells at confluence were pretreated for 2 hours with control vehicle (C), or PLA2 inhibitors ACA (25 μM) and AACOCF3 (AAC, 20 μM), in osteogenic medium. Next, a combination of 22R and 20S oxysterols (RS, 2.5 μM) was added in the presence or absence of the inhibitors as indicated. After 3 days, ALP activity was measured as previously described. […] (F) M2 cells were treated as described in (E). After 10 days, matrix mineralization in cultures was quantified using a ^45Ca incorporation assay as previously described. Results from a representative of three experiments are shown, reported as the mean of quadruplicate determinations ±SD, normalized to protein concentration (p<0.01 for RS vs. RS+ACA and RS+AAC).
ALP activity was measured after 2 days, as described. […] (B) M2 cells were treated as described in (A). After 10 days, matrix mineralization in cultures was quantified using a ^45Ca incorporation assay as described. […] (C) M2 cells were treated under similar conditions as those described above. […]

marrow stromal cells = experiment: Osteogenic differentiation of marrow stromal cells (marker not specified: ALP activity, osteocalcin mRNA, mineral formation)
Experimental: The purpose of the study was to identify other osteogenic and anti-adipogenic oxysterols based on the chemical structure of previously identified oxysterols. The ability of such candidate oxysterol molecules to induce the formation of osteoblastic cells in cultures of marrow stromal cells (which are progenitors of osteoblastic cells that make bone) were tested. In order to assess osteogenic differentiation of cells, one or more markers of osteogenic differentiation were measured in untreated cells and cells treated with the test oxysterols. These markers included: alkaline phosphatase activity, osteocalcin mRNA expression and mineral formation in cultures of marrow stromal cells. Activation of either one or more than one marker by a single or combination oxysterols is indicative of their osteogenic property.

[1] = tested on: M2-10B4 marrow stromal cells; experiment: Alkaline phosphatase (ALP) activity assay on whole cell extracts of M2-10B4 marrow stromal cells; details: for Enzyme Activity (units/mg total cellular protein) ± SD, alkaline phosphatase: oxysterols 5 μM, 4 days, M2-10B4, untreated 6 ± 3
Experimental: (§2) Cells: M2-10B4 mouse marrow stromal cell line obtained from American Type Culture Collection (ATCC, Rockville, Md., U.S.A.) was derived from bone marrow stromal cells of a (C57BL/6J x C3H/HeJ) Fl mouse, and support human and murine myelopoiesis in long-term cultures (as per ATCC) and have the ability to differentiate into osteoblastic and adipocytic cells. Unless specified, these cells were cultured in RPMI 1640 containing 10% heat-inactivated FBS, and supplemented with 1 mM sodium pyruvate, 100 U/ml penicillin, and 100 U/ml streptomycin (all from Irvine Scientific).
Cells were always treated at 90% confluence. […]
as §1, with “Results from a representative of three experiments are shown, reported as the mean of quadruplicate determinations ±SD, normalized to protein concentration (p<0.01 for RS vs. RS+ACA and RS+AAC).” left out

M2 cells = experiment: Troglitazone-induced adipogenesis in M2 cells (oil Red O staining, adipocyte count); details: Tro 10 μM, oxysterol 10 μM, 10 days, alone or in combination
Experimental: (§3) Von Kossa and oil red O staining—Matrix mineralization in cell monolayers was detected by silver nitrate staining as previously described. Oil red O staining for detection of adipocytes was performed as previously described.
Test 1: M2 cells at 90% confluence were treated with vehicle (C), PPAR-γ activator, troglitazone 10 μM (Tro), alone or in combination with 10 μM oxysterols 20S-, 22R-, or 25S-hydroxycholesterol. After 8 days, adipocytes were identified by oil Red 0 staining and quantified by counting under a phase contrast microscope. FIG. 6A is a bar graph depicting the effect of oxysterols on reducing adipogenesis of MSC.
Test 2: (A) M2 cells at confluence were treated in RPMI containing 10% FBS with control vehicle or 10 μM troglitazone (Tro) in the absence or presence of 10 μM 20S or 22S-hydroxycholesterol. After 10 days, adipocytes were visualized by oil Red O staining and quantified by light microscopy, shown in (B). […] (C) M2 cells were treated at confluence with 10 μM Tro, alone or in combination with 10 μM 20S oxysterol. After 10 days, total RNA was isolated and analyzed for lipoprotein lipase (LPL), adipocyte P2 gene (aP2) or 18S rRNA expression by Northern blotting as described (Ref). Data from densitometric analysis of the Northern blot is shown in (D) as the average of duplicate samples, normalized to 18S rRNA.

Runx2 = Runx2 DNA binding and protein expression in M2-10B4 cells; details: pretreatment; cyclopamine 1-10 μM; DKK-1 1 μg/ml (Runx2 protein expression only)
Experimental: Method: Marrow stromal cells (M2-10B4 (M2)) were treated with doses of 5-15 μM 20S-hydroxycholestrol.
Method: Marrow stromal cells (M2-10B4 (M2)) were treated with doses of 5-15 μM20S-hydroxycholestrol. Groups of cells were pre-treated with 22S or 22R.
Method: Marrow stromal cells (M2-10B4 (M2)) were pretreated with Wnt signaling inhibitor, DKK-1 (1 μg/ml), then treated with 20S-hydroxycholestrol and 22(8)-hydroxycholesterol.

[2] = tested on: M2-10B4 marrow stromal cells; experiment: Matrix mineralization (45Ca incorporation assay, von Kossa staining) in M2-10B4 marrow stromal cells; details: pretreatment; cyclopamine 1-10 μM, DKK-1 1 μg/ml
Experimental: as §2, §3
^45Ca incorporation assay—Matrix mineralization in cell monolayers was quantified using the ^45Ca incorporation assay as previously described.
After 14 days, mineralization was identified by a von Kossa staining, which appears black. FIG. 3C is a depiction of von Kossa staining of M2 cells exposed to various conditions.
After 14 days, matrix mineralization in cultures was quantified using a ^45Ca incorporation assay.
as §1
(A) M2 cells at confluence were pretreated for four hours with RPMI containing 1% FBS, followed by treatment with control vehicle or 5 μM 20S oxysterol for 1, 4, or 8 hours. Next total cell extracts were prepared and analyzed for levels of native or phosphorylated ERK (pERK) using specific antibodies as previously described. Data from a representative of four experiments are shown, each treatment shown in duplicate samples. (B) M2 cells at confluence were pretreated for 2 hours with control vehicle (C) or 20 μM PD98059 (PD) in osteogenic medium as previously described. Next, a combination of 22R and 20S oxysterols (RS, 5 μM each) were added to appropriate wells as indicated. After 10 days of incubation, matrix mineralization was quantified by the ^45Ca incorporation assay as previously described. […] (C) M2 cells at confluence were pretreated for 2 hours with 20 µM PD98059 (PD) in RPMI containing 5% FBS. Next, the cells were treated with control vehicle (C), 10 μM troglitazone (Tro), or 10 μM of 20S or 22S oxysterols, alone or in combination as indicated. After 10 days, adipocytes were visualized by oil Red O staining and quantified by light microscopy as previously described. […]

| Structure (SMILES) | levels of osteocalcin mRNA relative to the control (osteocalcin mRNA) | osteogenic property, alone or in combination with originally described oxysterols (marrow stromal cells) | Enzyme Activity (units/mg total cellular protein) ± SD, alkaline phosphatase [1] | also measured |
| --- | --- | --- | --- | --- |
| C[C@H](CC[C@@H]1OC1(C)C)[C@H]1CC[C@H]2[C@@H]3CC=C4C[C@@H](O)CC[C@]4(C)[C@H]3CC[C@]12C [24S,25-epoxycholesterol] | increased | osteoinductive | 1,588 ± 19^ units/mg total cellular protein | – |
| CC(C)CCC[C@@H](C)[C@H]1CC[C@H]2[C@@H]3C(=O)C=C4C[C@@H](O)CC[C@]4(C)[C@H]3CC[C@]12C [7-ketocholesterol, reference compound] | – | – | – | effect on troglitazone-induced adipogenesis (M2 cells): unable to inhibit adipogenesis; induction of alkaline phosphatase activity ([1]; 10 μM oxysterol, 3 days, osteogenic medium): did not induce |
| CC1=C2C[C@H]3[C@@H](CC=C4C[C@@H](O)CC[C@@]43C)[C@@H]2CC[C@]12O[C@@H]1C[C@H](C)CN[C@H]1[C@H]2C [cyclopamine, reference compound] | – | – | – | effect on SS-induced osteocalcin mRNA expression (osteocalcin mRNA; pretreatment, cyclopamine 1-10 μM, DKK-1 1 μg/ml): inhibited; effect on SS-induced Runx2 DNA binding and protein expression (Runx2): inhibited; effect on SS-induced mineralization [2]: inhibited |
| CC(C)CCC[C@@H](C)[C@H]1CC[C@H]2[C@@H]3CC=C4[C@@H](O)[C@@H](O)CC[C@]4(C)[C@H]3CC[C@]12C [4beta-hydroxycholesterol] | moderate increase | osteoinductive | – | – |
| CC(C)[C@@H](O)CC[C@@H](C)[C@H]1CC[C@H]2[C@@H]3CC=C4C[C@@H](O)CC[C@]4(C)[C@H]3CC[C@]12C [24-hydroxycholesterol, 24(S)-hydroxycholesterol] | – | osteoinductive | 250 ± 20 units/mg total cellular protein | – |

Source: US20090220562A1, “Osteogenic and anti-adipogenic oxysterols” (priority 2005, published 2009)
